These results are taken from PubChem BioAssay (NCI).

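Tested at 5 concentrations; 48 h exposure; 96-well plates; endpoints linearly interpolated, else capped at highest concentration. GI50 marks 50% less growth. TGI: total growth inhibition.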 Where only a bound is given, the exact number is not on record here.

What all share (experiment): DTP human tumour cell line panel, 48 h
In experiment [1] the test system is DMS 114 small cell lung.
For experiment [2], the system named is LXFL 529 NSCLC.
Experiment [3] deals with DLD-1 colon.
Experiment [4] concerns SK-OV-3 ovarian.
In experiment [5] the test system is XF 498 CNS.
In experiment [6] the test system is SNB-78 CNS.
Experiment [7] relates to DMS 273 small cell lung.
In experiment [8] the test system is KM20L2 colon.
The subject of experiment [9] is MDA-N.
Experiment [10] has as its system HS 578T breast.
The subject of experiment [11] is M14 melanoma.
Experiment [12] has as its system PC-3 prostate.
Experiment [13] deals with BT-549 breast.
Experiment [14] has as its system NCI/ADR-RES ovarian.

`COc1cccc(NC(=O)CC(=O)NNCC(=O)Nc2nnc(-c3ccc(N(CCC#N)S(=O)(=O)c4ccccc4)cc3)s2)c1`: the TGI in [1], in [2], in experiment [3], in experiment [4], in experiment [5] and in experiment [6] was above 100 µM in each case. For the same compound, the TGI in experiment [7] and in experiment [8] was above 100 µM in each case.
For `COc1ccc2c(c1)CC1Cc3ccccc3CCN1C2` (centres undefined), the TGI in experiment [9], in experiment [10], in experiment [11], in experiment [4], in [12] and in [13] was above 100 µM each time. In experiment [14], the TGI is above 100 µM.
Regarding `CCC(=O)NC(OCC1(CC)COC1)(C(F)(F)F)C(F)(F)F`, the TGI in experiment [9], in experiment [10], in experiment [11], in experiment [4] and in experiment [13] was above 100 µM in each case.
As to `COc1cc(OC)cc(-c2n/c(=C\c3c(O)[nH]c4ccc(Cl)cc34)cc3c2=Nc2ccccc2-3)c1`, the GI50 in experiment [10] was 16.4 µM; in [11] it was 4.01 µM; in experiment [4], 10.2 µM; in experiment [12] it was 5.55 µM; in experiment [13], 3 µM; in experiment [14] it was 3.03 µM. The TGI in [10] came out at 62.4 µM; in [11], 13.7 µM; in experiment [4], 26 µM; in experiment [12], 28.7 µM; in [13], 9.75 µM; in experiment [14], 10.8 µM.
With `CCNc1ncnc2c1nnn2CC`, the TGI in experiment [9], in experiment [11], in experiment [4], in experiment [12] and in experiment [14] was above 100 µM in each case.
As for `COC(=O)C1=C(C)N(NC(=O)c2ccccc2)C2(O)CCCC(=O)C12C` (centres undefined), the TGI in experiment [1], in experiment [2], in experiment [11], in [3], in experiment [4] and in experiment [5] was above 100 µM in each case. Besides, the TGI in [6], in experiment [7] and in [8] was above 100 µM throughout.
As to `CC(C)(C)OC(=O)NCC(=O)NC1C/C(=N\O)c2sccc21` (centres undefined), the TGI in experiment [9], in experiment [10], in [11], in experiment [4], in experiment [12] and in experiment [13] was above 100 µM in each case. The compound also gave a TGI in [14] above 100 µM.
As to `CN(/N=N/c1nc[nH]c1C(N)=O)C1CCCCC1`, the TGI in experiment [1], in experiment [2], in experiment [11], in experiment [3], in [4] and in [5] was above 100 µM in each case. Moreover, the concentration for total growth inhibition (TGI) in [6], in experiment [7] and in experiment [8] was above 100 µM throughout.
With `COc1ccc2c(c1OC)C(=O)O[C@@H]2[C@H]1c2cc3c(cc2CCN1C)OCO3`, the total growth inhibition concentration (TGI) in experiment [9], in [10], in experiment [11], in [4], in [12] and in experiment [13] was above 100 µM in each case. The TGI in experiment [14] was above 100 µM.
